# Laboratory results published in patent EP4678638A1, “NEW E3 UBIQUITIN LIGASE LIGAND, PROTEIN DEGRADATION AGENT AND USE THEREOF” (priority 2023, dated 2024).
# Tests used:
# ER = molecular target: T1, ER (Homo sapiens, UniProt P03372); experiment: Western blot degradation of ER (MCF-7 Cell); format: cell-based; details: Table D12
# T1 construct: evaluate the effects of the compounds of the present disclosure on the expression of target proteins in cells; endogenous in cells; host or cells: MCF-7
# T1 sequence (P03372 1-595): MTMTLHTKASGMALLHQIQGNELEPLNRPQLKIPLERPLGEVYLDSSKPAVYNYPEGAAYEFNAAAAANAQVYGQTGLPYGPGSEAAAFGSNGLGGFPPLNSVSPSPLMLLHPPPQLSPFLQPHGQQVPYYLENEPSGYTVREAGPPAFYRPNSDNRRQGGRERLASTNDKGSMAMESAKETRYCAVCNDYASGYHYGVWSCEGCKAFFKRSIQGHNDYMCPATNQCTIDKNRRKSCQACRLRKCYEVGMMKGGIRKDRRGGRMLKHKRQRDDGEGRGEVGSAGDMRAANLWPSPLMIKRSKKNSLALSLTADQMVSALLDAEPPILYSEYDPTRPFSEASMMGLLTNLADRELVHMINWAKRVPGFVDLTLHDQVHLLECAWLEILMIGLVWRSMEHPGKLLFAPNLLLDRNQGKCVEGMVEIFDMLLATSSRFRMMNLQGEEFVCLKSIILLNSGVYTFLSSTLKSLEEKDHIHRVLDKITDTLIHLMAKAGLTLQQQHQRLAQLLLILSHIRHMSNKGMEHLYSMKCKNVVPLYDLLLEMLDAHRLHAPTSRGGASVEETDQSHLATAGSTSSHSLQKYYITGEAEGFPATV
# Experimental: (§1) Conventional Western blot assay was performed to evaluate the effects of the compounds of the present disclosure on the expression of target proteins in cells.
# (§2) (1) Cell Seeding and Protein Harvesting: The selected cells were processed according to the cell seeding procedure and protein harvesting procedure in Table III-2. Table III-2 Cell Seeding and Protein Harvesting Procedures
# (§3) (2) To the collected supernatant, 5X SDS sample loading buffer was added, followed by denaturation at 95°C for 5 minutes. The denatured samples were then separated by SDS-PAGE electrophoresis on a polyacrylamide gel. Proteins were transferred to a nitrocellulose membrane (0.45 µm NC membrane), blocked with blocking buffer at room temperature for 1 hour, and subjected to antibody incubation and development procedures according to the antibody manufacturer's instructions (Cell Signaling Technology).
# (§4) Half-Maximal Degradation Concentration value (the drug concentration required for degrading proteins by 50%, abbreviated as DC50) reads method: comparing the grayscale values of Western blot bands from drug-treated samples with those from blank DMSO-treated controls, and identifying the drug concentration range at which the grayscale value is half that of the DMSO-treated control bands.
# (§5) DC50 values can be calculated using ImageJ software to measure grayscale values of Western blot bands from drug-treated samples. The concentration-response curve is fitted to estimate the drug concentration corresponding to half the grayscale value.
# (§6) Target protein remaining (%) refers to the percentage of target protein remaining in hPBMC cells after treatment with protein degrader compounds.
# (§7) Calculation method for target protein remaining (%): Use ImageJ software to measure grayscale values of Western blot bands from drug (protein degrader)-treated samples. The grayscale value of drug-treated bands is divided by that of internal control protein bands, and the resulting quotient is normalized to obtain the relative percentage of remaining target protein after protein degrader treatment.
# (§8) Target protein degradation rate (%) = 100% - target protein remaining (%).
# [1] = molecular target: T2, human Cereblon WT GST-tagged protein (Homo sapiens, UniProt Q96SW2); experiment: CRBN binding, HTRF (CEREBLON BINDING kit); details: HTRF; for IC50: Table II-1, CRBN binding
# T2 construct: purchased CISBIO 64BDCRBNPEH
# T2 sequence (Q96SW2 whole entry): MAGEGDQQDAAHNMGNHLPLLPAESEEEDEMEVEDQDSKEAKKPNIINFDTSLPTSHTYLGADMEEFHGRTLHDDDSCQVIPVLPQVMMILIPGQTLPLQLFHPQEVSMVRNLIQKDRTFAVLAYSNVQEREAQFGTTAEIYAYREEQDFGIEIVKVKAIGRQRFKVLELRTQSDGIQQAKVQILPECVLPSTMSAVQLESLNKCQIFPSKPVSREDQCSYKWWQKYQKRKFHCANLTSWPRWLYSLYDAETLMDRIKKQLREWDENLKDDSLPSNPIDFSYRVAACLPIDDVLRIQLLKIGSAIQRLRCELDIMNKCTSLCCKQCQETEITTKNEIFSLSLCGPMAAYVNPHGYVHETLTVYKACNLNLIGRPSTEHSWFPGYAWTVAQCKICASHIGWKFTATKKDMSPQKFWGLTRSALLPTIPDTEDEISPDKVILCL
# Outline: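 After 3 h at room temperature, emission at 665 and 620 nm was measured in a homogeneous time-resolved fluorescence format. Compounds competed with a Thalidomide-Re probe for GST-tagged wild-type human CRBN, which was labelled with a Eu anti-GST antibody.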
# MM.1R = experiment: CCK-8 proliferation, MM.1R; format: cell-based; details: CCK-8, 72 hours, read-out: Inhibitory activity (IC50) on tumor cell proliferation, MM.1R
# Outline: (§9)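 CCK-8 viability readout; IC50 from growth-inhibition curve fitting. Cells plated, dosed 24h later with a 10-point series, top 10µM, 5-fold steps. Culture at 37°C, 5% CO2.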
# SW620 = experiment: CCK-8 proliferation, SW620; format: cell-based; details: Homo sapiens, SW-620; CCK-8; 96 hours; read-out: Inhibitory activity (IC50) on tumor cell proliferation, SW620
# Outline: as §9
# K562 = experiment: CCK-8 proliferation, K562; format: cell-based; details: Homo sapiens, 72 or 96 hours, read-out: Inhibitory activity (IC50) on tumor cell proliferation, K562
# Experimental: (§10) The tumor cells used herein were cultured in a cell culture medium listed in table A1 at 37°C in an incubator with 5% CO2. Prior to experimentation, all cell lines used were correctly identified by STR profiling, and tested negative for mycoplasma contamination using a mycoplasma detection kit through routine screenings. Table A1. Tumor cells and cell culture medium used in the present disclosure
# (§11) IC50 values of the compounds of the present disclosure (including the compounds in Table 1, and compounds of examples) were measured using the Meilun Cell Counting Kit-8 kit from Dalian Meilun Biotech Co., Ltd. Assay details are as follows: tumor cells were seeded in a 96-well plate at a density listed in Table A2. After 24h, 100 µL of the inoculated cells were treated with 0.5µL of the compounds of the present disclosure (including the compounds in Tables 1 and 2, and compounds of examples) at 10 different successively decreasing concentrations (starting at the highest concentration of 10µM; 5-fold serial dilutions). After the cells were treated with the compounds of the present disclosure for a period of time, the cell viability detection reagent was added to the culture medium for cell viability assessment according to the instructions provided with the CCK-8 kit. […] The growth inhibition of the compounds of the present disclosure on cells was plotted by Prism Graphpad software, and the IC50 values of the compounds of the present disclosure were calculated therefrom. […] Seeding protocol and treatment time for tumor cells
# TMD8 = experiment: CCK-8 proliferation, TMD8; format: cell-based; details: Homo sapiens, TMD8; CCK-8; 72 hours; read-out: Inhibitory activity (IC50) on tumor cell proliferation, TMD8
# Experimental: as §10, §11
# DU-145 = experiment: CCK-8 proliferation, DU-145; format: cell-based; details: Homo sapiens, 96 hours, read-out: Inhibitory activity (IC50) on tumor cell proliferation, DU-145
# Outline: as §9
# CCRF-CEM = experiment: CCK-8 proliferation, CCRF-CEM; format: cell-based, Human; details: Homo sapiens, CCRF-CEM; CCK-8; 96 hours; read-out: Inhibitory activity (IC50) on tumor cell proliferation, CCRF-CEM
# Outline: as §9
# Jurkat = experiment: CCK-8 proliferation, Jurkat; format: cell-based, Human; details: Homo sapiens, Jurkat; CCK-8; 96 hours; read-out: Inhibitory activity (IC50) on tumor cell proliferation, Jurkat
# Outline: as §9
# SU-DHL-4 = experiment: CCK-8 proliferation, SU-DHL-4; format: cell-based; details: Homo sapiens, 72 hours, read-out: Inhibitory activity (IC50) on tumor cell proliferation, SU-DHL-4
# Experimental: as §10, §11
# CDK9 = molecular target: T3, CDK9 (Homo sapiens, UniProt P50750); experiment: Western blot degradation of CDK9 (MDA-MB-231 Cell); format: cell-based; details: Table D13
# T3 construct: evaluate the effects of the compounds of the present disclosure on the expression of target proteins in cells; endogenous in cells; host or cells: MDA-MB-231
# T3 sequence (P50750 whole entry): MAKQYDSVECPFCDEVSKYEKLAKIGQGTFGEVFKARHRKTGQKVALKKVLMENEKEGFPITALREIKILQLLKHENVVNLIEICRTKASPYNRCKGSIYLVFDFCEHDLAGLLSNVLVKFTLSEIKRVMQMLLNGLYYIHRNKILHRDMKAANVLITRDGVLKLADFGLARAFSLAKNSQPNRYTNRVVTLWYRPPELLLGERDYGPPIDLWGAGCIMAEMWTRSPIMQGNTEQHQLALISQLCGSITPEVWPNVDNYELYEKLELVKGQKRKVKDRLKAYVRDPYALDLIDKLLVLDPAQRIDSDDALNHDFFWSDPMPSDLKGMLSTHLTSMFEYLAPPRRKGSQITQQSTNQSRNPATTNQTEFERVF
# Experimental: as §1, §2, §3, §4, §5, §6, §7, §8
# H2228 = experiment: CCK-8 proliferation, NCI-H2228 (H2228); format: cell-based; details: Homo sapiens, NCI-H2228; CCK-8; 96 hours; read-out: Inhibitory activity (IC50) on tumor cell proliferation, H2228
# Outline: as §9
# PC-9 = experiment: CCK-8 proliferation, PC-9; format: cell-based, Human; details: Homo sapiens, PC-9; CCK-8; 96 hours; read-out: Inhibitory activity (IC50) on tumor cell proliferation, PC-9
# Outline: as §9
# H1975 = experiment: CCK-8 proliferation, NCI-H1975 (H1975); format: cell-based, Human; details: Homo sapiens, NCI-H1975; CCK-8; 96 hours; read-out: Inhibitory activity (IC50) on tumor cell proliferation, H1975
# Outline: as §9
Compound,IC50 (MM.1R) [nM],IC50 (SW620) [nM],IC50 (K562) [nM],IC50 (DU-145) [nM],IC50 (CCRF-CEM) [nM],IC50 (SU-DHL-4) [nM],Degradation of substrate protein ER (substrate protein remaining %) (ER),IC50 (TMD8) [nM],Degradation of substrate protein CDK9 (substrate protein remaining %) (CDK9),also measured
"CCC(=C(c1ccc(O)cc1)c1ccc(N2CCN(Cc3ccc(C4CCC(=O)NC4=O)cc3)CC2)cc1)c1ccc(O)cc1 (centres unmarked) [GT-04149, 3-(4-((4-(4-(1,2-bis(4-hydroxyphenyl)but-1-en-1-yl)phenyl)piperazin-1-yl)methyl)phenyl)piperidine-2,6-dione]",–,–,–,–,–,–,A (A is defined as 0% ≤ substrate protein remaining % ≤ 80%),–,–,–
"O=C1CCC(c2ccc(CN3CCN(C4CCN(c5ccc([C@@H]6c7ccc(O)cc7CC[C@@H]6c6ccccc6)cc5)CC4)CC3)cc2F)C(=O)N1 (stereo partly drawn) [GT-04670, 3-(2-fluoro-4-((4-(1-(4-((1R,2S)-6-hydroxy-2-phenyl-1,2,3,4-tetrahydronaphthalen-1-yl)phenyl)piperidin-4-yl)piperazin-1-yl)methyl)phenyl)piperidine-2,6-dione]",–,–,–,–,–,–,A (A is defined as 0% ≤ substrate protein remaining % ≤ 80%),–,–,IC50 [1]: 500 to 1000 nM
"O=C1CCC(c2ccc(CN3CCN(C4CCN(c5ccc([C@@H]6c7ccc(O)cc7CC[C@@H]6c6ccccc6)cc5)CC4)CC3)cc2)C(=O)N1 (stereo partly drawn) [GT-04684, 3-(4-((4-(1-(4-((1R,2S)-6-hydroxy-2-phenyl-1,2,3,4-tetrahydronaphthalen-1-yl)phenyl)piperidin-4-yl)piperazin-1-yl)methyl)phenyl)piperidine-2,6-dione]",–,–,–,–,–,–,A (A is defined as 0% ≤ substrate protein remaining % ≤ 80%),–,–,IC50 [1]: 1000 to 1900 nM
"NC(=O)c1ccc(N2CCC(N3CCN(Cc4ccc(C5CCC(=O)NC5=O)c(F)c4)CC3)CC2)nc1-c1ccc(Oc2ccccc2)cc1 (centres unmarked) [GT-03754, 6-(4-(4-(4-(2,6-dioxopiperidin-3-yl)-3-fluorobenzyl)piperazin-1-yl)piperidin-1-yl)-2-(4-phenoxyphenyl)nicotinamide]",100 to 500,100 to 500,100 to 500,–,–,–,–,–,–,–
"O=C1CCC(Nc2cccc(CN3CCN(C4CCN(c5ccc([C@@H]6c7ccc(O)cc7CC[C@@H]6c6ccccc6)cc5)CC4)CC3)c2)C(=O)N1 (stereo partly drawn) [GT-04674, 3-((3-((4-(1-(4-((1R,2S)-6-hydroxy-2-phenyl-1,2,3,4-tetrahydronaphthalen-1-yl)phenyl)piperidin-4-yl)piperazin-1-yl)methyl)phenyl)amino)pip eridine-2,6-dione]",–,–,–,–,–,–,A (A is defined as 0% ≤ substrate protein remaining % ≤ 80%),–,–,–
"O=C1CCC(c2ccc(CN3CCC(n4cc(NC(=O)c5coc(-c6ccnc(NCC(F)(F)F)c6)n5)c(C(F)F)n4)CC3)cc2)C(=O)N1 (centres unmarked) [GT-04121, N-(3-(difluoromethyl)-1-(1-(4-(2,6-dioxopiperidin-3-yl)benzyl)piperidin-4-yl)-1H-pyrazol-4-yl)-2-(2-((2,2,2-trifluoroethyl)amino)pyridin-4-yl)oxazole-4-carboxamide]",–,–,–,100 to 500,10 to 50,500 to 1000,–,100 to 500,A (A is defined as 0% ≤ substrate protein remaining % ≤ 80%),"IC50 (Jurkat): 100 to 500 nM; Inhibition rate (%) at 0.5µM ([1]; Table II-2, CRBN binding screening, at 0.5µM): a2 (20% < a2 ≤ 30%); Inhibition rate (%) at 2 µM ([1]; Table II-2, CRBN binding screening, at 2 µM): a6 (60% < a6 ≤ 80%)"
"NC(=O)c1ccc(N2CCC(N3CCN(Cc4ccc(C5CCC(=O)NC5=O)cc4)CC3)CC2)nc1-c1ccc(Oc2ccccc2)cc1 (centres unmarked) [GT-03753, 6-(4-(4-(4-(2,6-dioxopiperidin-3-yl)benzyl)piperazin-1-yl)piperidin-1-yl)-2-(4-phenoxyphenyl)nicotinamide]",500 to 1000,500 to 1000,100 to 500,–,–,–,–,–,–,–

# Further lines, with some results ahead:
IC50 (MM.1R) [nM],IC50 (SW620) [nM],IC50 (K562) [nM],IC50 (DU-145) [nM],IC50 (CCRF-CEM) [nM],IC50 (SU-DHL-4) [nM],Compound,Degradation of substrate protein ER (substrate protein remaining %) (ER),IC50 (TMD8) [nM],Degradation of substrate protein CDK9 (substrate protein remaining %) (CDK9),also measured
–,–,–,500 to 1000,1 to 10,500 to 1000,"O=C1CCC(c2ccc(CN3CCC(n4cc(NC(=O)c5coc(-c6ccnc(NCC(F)(F)F)c6)n5)c(C(F)F)n4)CC3)cc2F)C(=O)N1 (centres unmarked) [GT-04087, N-(3-(difluoromethyl)-1-(1-(4-(2,6-dioxopiperidin-3-yl)-3-fluorobenzyl)piperidin-4-yl)-1H-pyrazol-4-yl)-2-(2-((2,2,2-trifluoroethyl)amino)pyridin-4-yl)oxazole-4-carboxamide]",–,50 to 100,A (A is defined as 0% ≤ substrate protein remaining % ≤ 80%),IC50 (Jurkat): 10 to 50 nM
> 10000,> 10000,> 10000,–,–,–,"C=CC(=O)N1CCC(c2ccc(C(N)=O)c(-c3ccc(Oc4ccccc4)cc3)n2)CC1 [Orelabrutinib, reference compound]",–,5000 to 10000,–,IC50 (H2228): > 10000 nM; IC50 (PC-9): > 10000 nM; IC50 (H1975): > 10000 nM
–,–,–,100 to 500,500 to 1000,500 to 1000,"Cn1ncc(-c2nc(NC3CCN(Cc4ccc(C5CCC(=O)NC5=O)c(F)c4)CC3)ncc2Cl)c1CC1CC1 (centres unmarked) [GT-04051, 3-(4-((4-((5-chloro-4-(5-(cyclopropylmethyl)-1-methyl-1H-pyrazol-4-yl)pyrimidin-2-yl)amino)piperidin-1-yl)methyl)-2-fluorophenyl)piperidine-2,6-dione]",–,500 to 1000,A (A is defined as 0% ≤ substrate protein remaining % ≤ 80%),–
